Measurements reported in ChEMBL document CHEMBL4421722, “Inhibitors of protein prenyltransferases” (2013).
Active and inactive are the calls of the source. The calls are words filed in the database; no cut-off is given here.

Columns and labels:
[1] = Inhibition of rat recombinant geranylgeranyltransferase type I expressed in Escherichia coli assessed as reduction in geranylgeranylation of RhoA incubated for 30 mins in presence of [3H]GGPP by scintillation counting assay relative to control
Jurkat = assay: Antiproliferative activity against human Jurkat cells assessed as inhibition of cell proliferation incubated for 72 hrs by CCK8 assay; type: functional, cell-based
MCF7 = assay: Antiproliferative activity against human MCF7 cells assessed as inhibition of cell proliferation incubated for 6 days by CCK8 assay; type: functional, cell-based
HEK293 = assay: Inhibition of geranylgeranyltransferase type I in HEK293 cells expressing Myc-HA-tagged Rheb-WT assessed as effect on unprenylated Rap1 accumulation at 2.5 uM incubated for 48 hrs by SDS-PAGE and immunoblot analysis; type: cell-based; settings: Homo sapiens
[2] = biological target: Protein farnesyltransferase (Homo sapiens) (UniProt P49354+P49356); assay: Inhibition of FTase in HEK293 cells assessed as reduction in H-ras farnesylation at 2.5 to 10 uM incubated for 48 hrs by SDS-PAGE and immunoblot analysis; type: cell-based
[3] = biological target: T1, Geranylgeranyl transferase type-2 (Homo sapiens) (UniProt P53611+Q92696); assay: Inhibition of RabGGTase in HEK293 cells assessed as reduction in geranylgeranylation of Rab5b protein at 5 to 10 uM incubated for 48 hrs by SDS-PAGE and immunoblot analysis; type: cell-based
[4] = biological target: T1, Geranylgeranyl transferase type-2 (Homo sapiens); assay: Inhibition of RabGGTase (unknown origin) at 100000 nM using YPTI as substrate protein and [3H]geranylgeranyl pyrophosphate incubated for 20 mins by scintillation counting assay; type: protein-complex assay
[5] = biological target: Protein farnesyltransferase (Rattus norvegicus) (UniProt Q04631+Q02293); assay: Inhibition of rat recombinant FTase alpha/beta expressed in Escherichia coli at 100000 nM using K-Ras4B as a substrate as and [3H]farnesyl pyrophosphate incubated for 30 mins by scintillation counting assay
K562 [6] = assay: Induction of cell cycle arrest in human K562 cells assessed as accumulation at G1 phase incubated for 48 hrs by flow cytometry; type: functional, cell-based
K562 [7] = assay: Induction of cell cycle arrest in human K562 cells assessed as reduction in accumulation at S phase incubated for 48 hrs by flow cytometry; type: functional, cell-based
Mus musculus = species on record: Mus musculus; assay: Inhibition of geranylgeranyltransferase type I in mouse NIH/3T3 cells transfected with p21WAF1/CIP1 promoter-Luc assessed as induction of p21 CIP1/WAF1 expression by luciferase reporter gene assay; type: cell-based
PANC-1 [8] = assay: Antitumor activity against human PANC1 cells xenografted in SCID mouse assessed as inhibition of tumor growth at 1.16 mg/kg, ip dosed six times per week and measured every 2 weeks; type: functional, organism-based
PANC-1 [9] = assay: Antitumor activity against human PANC1 cells xenografted in SCID mouse assessed as inhibition of tumor growth at 1.16 mg/kg, ip dosed once time per week and measured every 2 weeks; type: functional, organism-based
[10] = Clearance in SCID mouse xenografted with human PANC1 cells at 1.16 mg/kg, ip dosed once or 6 times per week; type: ADME, organism-based; settings: in vivo
PANC-1 [11] = assay: Antitumor activity against human PANC1 cells xenografted in SCID mouse assessed as inhibition of tumor growth at 1.16 mg/kg, ip dosed 3 times per week and measured every 2 weeks up to day 14 to day 47; type: functional, organism-based
[12] = Toxicity in SCID mouse xenografted with human PANC1 cells assessed as effect on ALB level at 1.16 mg/kg, ip dosed 3 times per week and measured every 2 weeks up to day 14 to day 47; type: organism-based; settings: in vivo, 336 h
[13] = Toxicity in SCID mouse xenografted with human PANC1 cells assessed as effect on ALT […] level at 1.16 mg/kg, ip dosed 3 times per week and measured every 2 weeks up to day 14 to day 47; type: organism-based; settings: in vivo, 336 h
[14] = Toxicity in SCID mouse xenografted with human PANC1 cells assessed as effect on AST […] level at 1.16 mg/kg, ip dosed 3 times per week and measured every 2 weeks up to day 14 to day 47; type: organism-based; settings: in vivo, 336 h
[15] = Toxicity in SCID mouse xenografted with human PANC1 cells assessed as effect on BUN level at 1.16 mg/kg, ip dosed 3 times per week and measured every 2 weeks up to day 14 to day 47; type: organism-based; settings: in vivo, 336 h
[16] = Toxicity in SCID mouse xenografted with human PANC1 cells assessed as effect on creatinine level at 1.16 mg/kg, ip dosed 3 times per week and measured every 2 weeks up to day 14 to day 47; type: organism-based; settings: in vivo, 336 h
[17] = Toxicity in SCID mouse xenografted with human PANC1 cells assessed as effect on cholesterol level at 1.16 mg/kg, ip dosed 3 times per week and measured every 2 weeks up to day 14 to day 47; type: organism-based; settings: in vivo, 336 h
[18] = Toxicity in SCID mouse xenografted with human PANC1 cells assessed as effect on CK level at 1.16 mg/kg, ip dosed 3 times per week and measured every 2 weeks up to day 14 to day 47; type: organism-based; settings: in vivo, 336 h
[19] = Toxicity in SCID mouse xenografted with human PANC1 cells assessed as effect on ALP level at 1.16 mg/kg, ip dosed 3 times per week and measured every 2 weeks up to day 14 to day 47; type: organism-based; settings: in vivo, 336 h
[20] = Toxicity in SCID mouse xenografted with human PANC1 cells assessed as effect on GLU level at 1.16 mg/kg, ip dosed 3 times per week and measured every 2 weeks up to day 14 to day 47; type: organism-based; settings: in vivo, 336 h
[21] = Toxicity in SCID mouse xenografted with human PANC1 cells assessed as effect on CA level at 1.16 mg/kg, ip dosed 3 times per week and measured every 2 weeks up to day 14 to day 47; type: organism-based; settings: in vivo, 336 h
[22] = Toxicity in SCID mouse xenografted with human PANC1 cells assessed as effect on RBC level at 1.16 mg/kg, ip dosed 3 times per week and measured every 2 weeks up to day 14 to day 47; type: organism-based; settings: in vivo, 336 h
[23] = Toxicity in SCID mouse xenografted with human PANC1 cells assessed as effect on WBC level at 1.16 mg/kg, ip dosed 3 times per week and measured every 2 weeks up to day 14 to day 47; type: organism-based; settings: in vivo, 336 h
[24] = Toxicity in SCID mouse xenografted with human PANC1 cells assessed as effect on NE level at 1.16 mg/kg, ip dosed 3 times per week and measured every 2 weeks up to day 14 to day 47; type: organism-based; settings: in vivo, 336 h
[25] = Toxicity in SCID mouse xenografted with human PANC1 cells assessed as effect on LY level at 1.16 mg/kg, ip dosed 3 times per week and measured every 2 weeks up to day 14 to day 47; type: organism-based; settings: in vivo, 336 h
[26] = Toxicity in SCID mouse xenografted with human PANC1 cells assessed as effect on PLT level at 1.16 mg/kg, ip dosed 3 times per week and measured every 2 weeks up to day 14 to day 47; type: organism-based; settings: in vivo, 336 h

IC50 [1]: 1 to 7.7 µM
GI50 (Jurkat): 4.89 to 6.1 µM
inhibition [2]: inactive
inhibition [3]: inactive
inhibition [4]: inactive
inhibition [5]: inactive
CL/F [10]: 0.0173 mL/min
Compound: Cc1ccccc1S(=O)(=O)N1[C@@H](c2ccc(Cl)cc2)C(C(=O)N[C@@H](Cc2ccccc2)C(N)=O)=C[C@H]1C(C)(C)C
inhibition (MCF7): Dose-dependent effect
inhibition (HEK293): Active
Activity (K562 [6]): Dose-dependent effect
Activity (K562 [7]): Dose-dependent effect
Activity (Mus musculus): Dose-dependent effect
TGI (PANC-1 [8]): Active
TGI (PANC-1 [9]): Active
TGI (PANC-1 [11]): Active
Activity [12]: Non-Toxic
Activity [13]: Non-Toxic
Activity [14]: Non-Toxic
Activity [15]: Non-Toxic
Activity [16]: Non-Toxic
Activity [17]: Non-Toxic
Activity [18]: Non-Toxic
Activity [19]: Non-Toxic
Activity [20]: Non-Toxic
Activity [21]: Non-Toxic
Activity [22]: Non-Toxic
Activity [23]: Non-Toxic
Activity [24]: Non-Toxic
Activity [25]: Non-Toxic
Activity [26]: Non-Toxic
